Results published in the NIST ThermoML archive (doi:10.1016/j.jct.2016.12.012).
Several values for one entry are separate records, joined by “and”; a condition that tells them apart may be missing. Equal entries are not always repeated.

What was measured:
[1] = for Normal melting temperature: DTA
[2] = Molar enthalpy of transition or fusion; conditions: DSC

CC(=O)Oc1ccccc1C(C)=O [2'-acetoxyacetophenone]
[1]
Conditions | vapor or sublimation pressure
298.01 K, Crystal, Calculated from knudsen effusion weight loss | 6.1e-05 kPa and 6e-05 kPa
299.4 K, Crystal, Calculated from knudsen effusion weight loss | 7.4e-05 kPa
301.22 K, Crystal, Calculated from knudsen effusion weight loss | 9.7e-05 kPa and 9.6e-05 kPa
303.17 K, Crystal, Calculated from knudsen effusion weight loss | 0.000121 kPa and 0.000122 kPa and 0.000124 kPa
305.39 K, Crystal, Calculated from knudsen effusion weight loss | 0.000164 kPa and 0.000166 kPa
307.2 K, Crystal, Calculated from knudsen effusion weight loss | 0.000214 kPa and 0.000217 kPa and 0.000215 kPa
309.14 K, Crystal, Calculated from knudsen effusion weight loss | 0.000275 kPa and 0.000277 kPa
311.34 K, Crystal, Calculated from knudsen effusion weight loss | 0.000362 kPa and 0.000361 kPa and 0.000365 kPa
313 K, Crystal, Closed cell (Static) method | 0.00046 kPa
313.21 K, Crystal, Calculated from knudsen effusion weight loss | 0.000467 kPa and 0.000465 kPa and 0.000469 kPa
315.01 K, Crystal, Closed cell (Static) method | 0.0006 kPa
315.13 K, Crystal, Calculated from knudsen effusion weight loss | 0.00059 kPa and 0.000588 kPa and 0.000593 kPa
316.99 K, Crystal, Closed cell (Static) method | 0.00076 kPa
317.31 K, Crystal, Calculated from knudsen effusion weight loss | 0.000786 kPa and 0.000778 kPa
318.98 K, Crystal, Closed cell (Static) method | 0.00097 kPa
319.28 K, Crystal, Calculated from knudsen effusion weight loss | 0.00102 kPa and 0.001014 kPa and 0.001001 kPa
320.96 K, Crystal, Closed cell (Static) method | 0.00123 kPa
321.27 K, Crystal, Calculated from knudsen effusion weight loss | 0.001305 kPa and 0.001292 kPa and 0.001286 kPa
322.97 K, Crystal, Closed cell (Static) method | 0.00156 kPa
324.96 K, Crystal, Closed cell (Static) method | 0.00199 kPa
326.91 K, Crystal, Closed cell (Static) method | 0.0025 kPa
328.91 K, Crystal, Closed cell (Static) method | 0.00314 kPa
330.92 K, Crystal, Closed cell (Static) method | 0.00397 kPa
332.88 K, Crystal, Closed cell (Static) method | 0.00495 kPa
334.86 K, Crystal, Closed cell (Static) method | 0.00619 kPa
336.81 K, Crystal, Closed cell (Static) method | 0.00762 kPa
338.84 K, Crystal, Closed cell (Static) method | 0.00958 kPa
340.8 K, Crystal, Closed cell (Static) method | 0.01175 kPa
342.74 K, Crystal, Closed cell (Static) method | 0.01458 kPa
344.72 K, Crystal, Closed cell (Static) method | 0.01786 kPa
344.73 K, Metastable liquid, Closed cell (Static) method | 0.03005 kPa
346.7 K, Crystal, Closed cell (Static) method | 0.02195 kPa
346.73 K, Metastable liquid, Closed cell (Static) method | 0.03465 kPa
348.65 K, Metastable liquid, Closed cell (Static) method | 0.03975 kPa
348.68 K, Crystal, Closed cell (Static) method | 0.02665 kPa
350.65 K, Metastable liquid, Closed cell (Static) method | 0.04556 kPa
350.69 K, Crystal, Closed cell (Static) method | 0.0325 kPa
352.61 K, Crystal, Closed cell (Static) method | 0.0395 kPa
352.64 K, Metastable liquid, Closed cell (Static) method | 0.05208 kPa
354.59 K, Metastable liquid, Closed cell (Static) method | 0.05928 kPa
354.61 K, Crystal, Closed cell (Static) method | 0.04802 kPa
356.54 K, Crystal, Closed cell (Static) method | 0.05812 kPa
356.54 K, Metastable liquid, Closed cell (Static) method | 0.06775 kPa
358.51 K, Metastable liquid, Closed cell (Static) method | 0.07683 kPa
360.53 K, Metastable liquid, Closed cell (Static) method | 0.08729 kPa
362.46 K, Metastable liquid, Closed cell (Static) method | 0.0988 kPa
364.45 K, Closed cell (Static) method, Liquid | 0.1124 kPa
366.49 K, Closed cell (Static) method, Liquid | 0.127 kPa
368.43 K, Closed cell (Static) method, Liquid | 0.1443 kPa
370.48 K, Closed cell (Static) method, Liquid | 0.162 kPa
372.37 K, Closed cell (Static) method, Liquid | 0.1819 kPa
374.39 K, Closed cell (Static) method, Liquid | 0.205 kPa
376.34 K, Closed cell (Static) method, Liquid | 0.2324 kPa
378.28 K, Closed cell (Static) method, Liquid | 0.2588 kPa
380.23 K, Closed cell (Static) method, Liquid | 0.2847 kPa
382.24 K, Closed cell (Static) method, Liquid | 0.3195 kPa
384.15 K, Closed cell (Static) method, Liquid | 0.3609 kPa
386.19 K, Closed cell (Static) method, Liquid | 0.3984 kPa
388.15 K, Closed cell (Static) method, Liquid | 0.4446 kPa
390.12 K, Closed cell (Static) method, Liquid | 0.4936 kPa
392.04 K, Closed cell (Static) method, Liquid | 0.5463 kPa
394.07 K, Closed cell (Static) method, Liquid | 0.6059 kPa
395.98 K, Closed cell (Static) method, Liquid | 0.6687 kPa
398 K, Closed cell (Static) method, Liquid | 0.7392 kPa

Crystal
Conditions | Molar enthalpy of transition or fusion [kcal/mol] | Normal melting temperature [°C]
[1] | – | 88.7
[2] | 7.72 | –

CC(=O)Oc1ccc(C(C)=O)cc1 [4-acetoxyacetophenone]
[1]
Conditions | vapor or sublimation pressure
298.12 K, Crystal 2, Calculated from knudsen effusion weight loss | 9.3e-05 kPa
299.15 K, Crystal 2, Calculated from knudsen effusion weight loss | 0.000105 kPa and 0.000106 kPa
300.3 K, Crystal 2, Calculated from knudsen effusion weight loss | 0.000123 kPa
301.34 K, Crystal 2, Calculated from knudsen effusion weight loss | 0.000143 kPa and 0.000142 kPa and 0.000141 kPa
302.25 K, Crystal 2, Calculated from knudsen effusion weight loss | 0.000159 kPa
303.23 K, Crystal 2, Calculated from knudsen effusion weight loss | 0.000185 kPa and 0.000184 kPa
304.1 K, Crystal 2, Calculated from knudsen effusion weight loss | 0.000202 kPa and 0.000205 kPa
305.13 K, Crystal 2, Calculated from knudsen effusion weight loss | 0.00023 kPa and 0.000232 kPa and 0.000229 kPa
306.26 K, Crystal 2, Calculated from knudsen effusion weight loss | 0.000268 kPa and 0.000266 kPa
307.14 K, Crystal 2, Calculated from knudsen effusion weight loss | 0.0003 kPa and 0.000301 kPa
308.25 K, Crystal 2, Calculated from knudsen effusion weight loss | 0.000347 kPa and 0.000346 kPa
309.29 K, Crystal 2, Calculated from knudsen effusion weight loss | 0.000397 kPa and 0.000395 kPa and 0.000394 kPa
315 K, Crystal 1, Closed cell (Static) method | 0.00078 kPa
316 K, Crystal 1, Closed cell (Static) method | 0.00087 kPa
317 K, Crystal 1, Closed cell (Static) method | 0.00098 kPa
317.96 K, Crystal 1, Closed cell (Static) method | 0.00109 kPa
318.99 K, Crystal 1, Closed cell (Static) method | 0.00123 kPa
319.96 K, Crystal 1, Closed cell (Static) method | 0.00139 kPa
321.01 K, Crystal 1, Closed cell (Static) method | 0.00155 kPa
321.89 K, Crystal 1, Closed cell (Static) method | 0.00173 kPa
322.88 K, Crystal 1, Closed cell (Static) method | 0.00195 kPa
323.91 K, Crystal 1, Closed cell (Static) method | 0.00218 kPa

[1], Liquid, Closed cell (Static) method
Conditions | vapor or sublimation pressure [kPa]
328.88 K | 0.00341
330.91 K | 0.00406
332.89 K | 0.00478
334.84 K | 0.00555
336.85 K | 0.00658
338.81 K | 0.00777
340.85 K | 0.00908
342.77 K | 0.01045
344.77 K | 0.01225
346.74 K | 0.01408
348.68 K | 0.01633
350.65 K | 0.01885
352.66 K | 0.02182
354.62 K | 0.02505
356.57 K | 0.02907
358.59 K | 0.03305
360.49 K | 0.03795
362.51 K | 0.04335
364.46 K | 0.04961
366.46 K | 0.05645
368.38 K | 0.06404
370.41 K | 0.07307
372.31 K | 0.08205
374.34 K | 0.09319
376.33 K | 0.1048
378.32 K | 0.1186

Conditions | Molar enthalpy of transition or fusion, Crystal 1 [kcal/mol] | Molar enthalpy of transition or fusion, Crystal 2 [kcal/mol] | Normal melting temperature, Crystal 1 [°C] | Triple point temperature, Crystal 2, DSC [K]
[1] | – | – | 51.0 | 310.1
[2] | 4.97 | 0.143 | – | –
